# Results reported in US8324261B2, “Histidine derivatives” (Nippon Zoki Pharmaceutical Co., Ltd., priority 2007, dated 2012).
# Like-named read-outs stand apart in the source and are kept apart here.
# Experiments:
# mice [1] = test: Test for analgesic effect (4): acetic acid writhing test; format: in vivo; conditions: oral single dose; 0.7% acetic acid i.p. 25 minutes after; writhing numbers during 10 minutes
# Method: The compounds of the present invention or the carboxylic acid type thereof were orally administered to mice and a test for an analgesic effect was carried out by means of an acetic acid writhing test. As to the test animals, male mice of ddY strain of four weeks age were subjected to a preliminary breeding and they were used where one group comprised ten mice. Each of the compound of the present invention or the carboxylic acid type thereof as a test substance was orally administered in a single dose while, to a control group, distilled water (water for injection) was administered similarly. After 25 minutes from the administration of the test substance, a 0.7% acetic acid/physiological saline was intraperitoneally administered at the dose of 10 mL/kg. From 5 minutes thereafter, writhing numbers during 10 minutes were counted and a suppressive rate for each mouse was calculated according to the following formula. Suppressive Rate (%)=[(Mean writhing numbers of the control group)−(Writhing numbers of each mouse)]÷[Mean writhing numbers of the control group]×100
# SART stressed mouse = test: Test for analgesic effect (1): SART stressed mouse, modified Randall-Selitto tail pressure method; format: in vivo, mice
# [2] = Test of kinetics in blood of rats; format: in vivo; conditions: rat, in vivo, po, 10 mg/kg
# Method: Each of the compound of the present invention and the carboxylic acid type A thereof was dissolved in DMSO, diluted with water. A sample solution (1% DMSO solution) made into 2 mg/mL was orally administered in a single dose to the fasted Wistar strain SPF male rats of seven weeks age using a stomach tube (10 mg/5 mL/kg). At the stages of 0.25, 0.5, 1, 2, 4 and 8 hour(s) after the administration, about 150 μL of the blood was collected from tail vein using a capillary to which heparin was added and said capillary was centrifuged to collect the plasma. Protein was removed from the plasma sample and the supernatant liquid was diluted to prepare each sample solution for the measurement.
# mice [3] = test: Single dose toxicity test by administration to mice; format: in vivo; conditions: intraperitoneal 250, 500 and 1,000 mg/kg; 14 days
# Method: A single dose toxicity test by intraperitoneal administration of the carboxylic acid type of the compounds of the present invention to mice was carried out. Male mice of ddY strain of four weeks age were made into groups of five mice so as to make mean body weight in each group nearly the same. Carboxylic acid type A as a test substance was intraperitoneally administered at the doses of 250 mg/kg, 500 mg/kg and 1,000 mg/kg.
# Chung model rat = test: Test for analgesic effect (2)/(3): Chung model rat, mechanical allodynia by von Frey filament; format: in vivo, rats
# Method: A test for analgesic effect was conducted using a Chung model rat which is a neuropathic pain model. As to the test animal, male rats of Wistar strain of nine weeks age were used and model rats were prepared in accordance with the method of Kim and Chung (Pain, vol. 50, pages 355 to 363, 1992). Thus, under anesthetization with pentobarbital (40 mg/kg, intraperitoneal administration), rat L5 spinal nerve was exposed and L5 dorsal root ganglion periphery side was strongly ligated using 5-0 silk yarn. The animals were placed in a transparent acrylate cage whose bottom was made of wire net, a 50% reaction threshold value was calculated by an up-down method using a von Frey filament (manufactured by North Coast Medical Inc.) according to the methods of Chaplan, et al. (J. Neurosci. Method, vol. 53, pages 55 to 63, 1994) and by Lee, et al. (J. Neurophysiol., vol. 81, pages 2226 to 2233, 1999) and measurement of allodynia was conducted. Before injury of spinal nerve, the 50% reaction threshold value was measured twice and the animals where the threshold value was outside the standard were excluded from the operation for spinal nerve injury. […] Those test animals were made into groups of seven animals so that the mean value of 50% reaction threshold after 28 days from the nerve injury as an index became nearly the same in each group.
# The carboxylic acid type of the compounds of the present invention as a test substance was intraperitoneally administered in a single dose while, a 0.5% CMC-Na/physiological saline solution was administered similarly to a nerve injury control group. After 30 minutes from the administration of the test substance, allodynia was measured to calculate a 50% reaction threshold value. With regard to a significance test, Paired t-test was conducted for comparison between before and after the nerve injury and Dunnett's multiple comparison test was used for comparison among multiple groups of the nerve injury control group and the test substance administration group.
# According to the same manner as in the above Test for Analgesic Effect (2), each of Compound 12 of the present invention (3 mg/kg, 10 mg/kg) and Carboxylic acid substance A of the compound of the present invention (10 mg/kg) was orally administered in a single dose as the test substance to Chung model rats. Allodynia after 0, 15, 30, 60 and 120 minutes from the administration was measured for each of the test substance administration group and the nerve injury control group whereupon a 50% reaction threshold value was calculated.
# rats [4] = test: Hyperalgesia in osteoarthritis model induced by monoiodoacetic acid into joints of rats; format: in vivo; conditions: oral administration of 1 mg/kg
# rats [5] = test: Formalin pain test for rats, second phase; format: in vivo; conditions: oral administration of 100 mg/kg
# [6] = set-up: species or system cynomolgus monkeys; conditions: cynomolgus monkey, in vivo, 30 mg/kg
# Method: Each of the compound of the present invention and Carboxylic acid type A thereof dissolved or suspended in a hydrochloric acid solution was diluted with water. […] At the stages of before the administration and of 0.25, 0.5, 1, 2, 4, 8 and 24 hour(s) after the administration, the blood was collected from femoral vein using a syringe to which heparin was added followed by subjecting to centrifugation to collect the plasma. Collection of the blood was conducted for three times in total where one collection was done with each blank term of six days for each test substance. Concentration of Carboxylic acid type A in each of the collected plasma samples was quantified by an LC-MS and Cmax (maximum drug concentration in plasma) and AUC (area under blood concentration time curve; 0 to ∞ hour(s)) of the compound of the present invention and Carboxylic acid type A thereof were calculated.
# [7] = intraperitoneally administered 100 μg/kg to mice
structure (smiles),measurement,setting,value
"C=CC(=O)N[C@@H](Cc1cncn1C)C(=O)O [Carboxylic acid type A, N^α-acryloyl-N^π-methyl-L-histidine]",Suppressive Rate (%),mice [1],33.1%
same,Analgesic coefficient,"SART stressed mouse; 25 ng per mouse into the lateral ventricle, 30 minutes after administration, pain threshold of test group divided by that of SART control group, 1.0 = no effect",1.33
same,Analgesic coefficient,SART stressed mouse; [7],1.24
same,pain threshold value,SART stressed mouse; [7],97.8 g
same,analgesic action,"SART stressed mouse; oral administration in mice, dose of 3 and 10 mg/kg, peak after 30 minutes",significant analgesic action
same,ED50 value determined from the improving rate at peak of action,"SART stressed mouse; oral administration in mice, peak after 30 minutes",2.7 mg/kg
same,AUC,[2],1339.4 ng·h/mL
same,Cmax,[2],372.5 ng/mL
same,death,mice [3],no death case
same,threshold as compared with the nerve injury control group,Chung model rat; intraperitoneal single dose,significant increase in the threshold
same,50% reaction threshold value,"Chung model rat; intraperitoneally 100 μg/kg single dose, 30 minutes after administration",9.60 g
same,anti-allodynia action to mechanical allodynia,"Chung model rat; oral administration, dose of 10 mg/kg, peak after 30 minutes",significant anti-allodynia action
same,ED50 value determined from the improving rate at the peak of the action,"Chung model rat; oral administration, peak after 30 minutes",2.4 mg/kg
same,anti-allodynia action as compared with the nerve injury control group,"Chung model rat; oral single dose (Compound 12: 3 and 10 mg/kg; Carboxylic acid type A: 10 mg/kg), 15, 30 and 60 minutes after administration, FIG. 1",significant anti-allodynia action
same,analgesic effect on hyperalgesia,rats [4],significant analgesic effect
same,analgesic action against pain reaction in the second phase,rats [5],significant analgesic action
same,AUC,[6],2356.9 ng·h/mL
same,Cmax,[6],410.8 ng/mL
